Measurements published in patent publication US20130121930A1, “Use of Glyceryl Trinitrate for Treating Hematomas” (priority 2010, published 2013).

Tested on: hematomas
Assay: Topically applied GTN on hematomas, general finding compared to untreated hematoma
Assay type: in vivo
Source text: Instead of darkening of the skin, the healing occurs with a green, followed by a yellow, coloration of the affected skin area.

[1] = 1.2 to 6 mg GTN on the day of injury, then daily 0.8 to 1.6 mg GTN, compared to an untreated hematoma

**Q.** `O=[N+]([O-])OCC(CO[N+](=O)[O-])O[N+](=O)[O-]` [GTN, glyceryl trinitrate] was tested. Which “typical darkening of the affected skin sites” value (1.2 to 6 mg GTN on the day of injury, then daily 0.8 to 1.6 mg GTN) did it give?
**A.** Its value is “prevents the typical darkening”.

**Q.** What about the individual healing phases [1] of the same molecule?
**A.** The individual healing phases was “significantly shortened”.

**Q.** And the “overall healing period for the treated hematomas” value [1]?
**A.** The value was “reduced by one-half”.

**Q.** What about the healing of hematomas (topically applied) of the same molecule?
**A.** Its healing of hematomas is “greatly accelerates”.
